{"source": "patent US20140302556A1", "about": "“CONTROLLING O-GLYCOSYLATION IN LOWER EUKARYOTES” (priority 2011, published 2014)", "key": {"[1]": {"test_system": "Pichia pastoris mutant strain YGLY17157", "assay": "Growth on YSD agar plates containing PMTi-4", "format": "cell-based", "settings": "agar plate, 24° C.", "experimental": "(§1) UV mutagenesis was performed as described by Winston (Curr. Protoc. Mol. Biol. 82:13.3B.1-13.3B.5 (2008)). Briefly, Pichia pastoris strain YGLY19376 (GFI5.0, pmt4Δ, expressing a recombinant IgG1) was grown in 40 mL YSD liquid medium over night at 24° C. Upon reaching an OD600 of five, a 10 mL aliquot of culture was transferred into an empty 100 mm sterile Petri dish, and treated, with the lid off, with 12 mJ/cm^2 of UV irradiation. After the UV treatment, the Petri dish was immediately covered with aluminum foil (to prevent photo-induced DNA repair). The mutagenized cells were allowed to recover at 24° C. for three hours in the dark. Two mL of the recovered YGLY19376 was then centrifuged at 2,000 rpm for five minutes. The cell pellet was then re-suspended in 400 μL 2% BMGY media and subsequently plated onto YSD agar plates containing 2 μg/mL or 4 μg/mL PMTi-4 PMT inhibitor (Example 4 compound of U.S. Published Application No. 20110076721 having the structure\nAfter seven days incubation at 24° C., colonies were picked and re-streaked onto fresh PMTi-4-containing plates at the above concentrations."}, "[2]": {"test_system": "Pichia pastoris mutant strain YGLY17156", "assay": "Growth on YSD agar plates containing PMTi-4", "format": "cell-based", "settings": "agar plate, 24° C."}, "[3]": {"test_system": "non-mutagenized parent strain YGLY19376", "assay": "1 L DasGip MeOH fed-batch fermentation with PMTi-4 (lysis, IgG1 titer, glycans)", "format": "cell-based, Pichia pastoris", "experimental": "(§2) Fed-batch fermentations, IgG1 purifications, characterization of N- and O-glycan profiles as well as all other analytical assays, were performed essentially as previously described (Barnard et al., J. Ind. Microbiol. Biotechnol. 37(9): 961-71 (2010); Potgieter et al., J. Biotechnol. 139(4):318-25 (2009)).\n(§3) Both PMT inhibitor-resistant mutant strains (YGLY17156 and YGLY17157), as well as the non-mutagenized parent strain YGLY19376 were grown in 1 L DasGip fermentors using a standard MeOH fed-batch fermentation protocol (See for example, Potgieter et al., J. Biotechnol. 139(4): 318-25 (2009) and Hopkins et al., Glycobiol. August 12. [Epub ahead of print] PubMed PMID: 21840970 (2011)).\n(§4) The robustness of the strains was determined by examining the fermentation cell cultures under microscope. Depending on the proportion of cell debris, a lysis-score was assigned from 0.5 to 5, with 5 being the worst lysis.\nThe inoculum seed flasks were inoculated from yeast patches (isolated from a single colony) on agar plates into 0.1 L of 4% BSGY in a 0.5-L baffled flask. Seed flasks were grown at 180 rpm and 24° C. (Innova 44, New Brunswick Scientific) for 48 hours. Cultivations were done in 1 L (fedbatch-pro, DASGIP BioTools) bioreactors. Vessels were charged with 0.54 L of 0.22 μm filtered 4% BSGY media and autoclaved at 121° C. for 45 minutes. […]"}, "[4]": {"test_system": "un-mutagenized YGLY19376 parent strain", "assay": "Growth on agar plates containing PMT inhibitor", "format": "cell-based, Pichia pastoris", "settings": "agar plate", "experimental": "as §1"}, "[5]": {"test_system": "PMTi-4-resistant mutant strain YGLY17157", "assay": "1 L DasGip MeOH fed-batch fermentation with PMTi-4 (lysis, WCW, IgG1 titer, glycans)", "format": "cell-based, Pichia pastoris", "experimental": "as §2, §3, §4\n(§5) The inoculum seed flasks were inoculated from yeast patches (isolated from a single colony) on agar plates into 0.1 L of 4% BSGY in a 0.5-L baffled flask. Seed flasks were grown at 180 rpm and 24° C. (Innova 44, New Brunswick Scientific) for 48 hours. Cultivations were done in 1 L (fedbatch-pro, DASGIP BioTools) bioreactors. Vessels were charged with 0.54 L of 0.22 μm filtered 4% BSGY media and autoclaved at 121° C. for 45 minutes. After sterilization and cooling; the aeration, agitation and temperatures were set to 0.7 vvm, 400 rpm and 24° C. respectively. The pH was adjusted to and controlled at 6.5 using 30% ammonium hydroxide. Inoculation of a prepared bioreactor occurred aseptically with 60 mL from a seed flask. Agitation was ramped to maintain 20% dissolved oxygen (DO) saturation. After the initial glycerol charge was consumed, denoted by a sharp increase in the dissolved oxygen, a 50% w/w glycerol solution containing 5 mg/L biotin and 32.3 mg/L PMTi4 was triggered to feed at 3.68 mL/hr for eight hours. During the glycerol fed-batch phase 0.375 mL of PTM2 salts were injected manually. Completion of the glycerol fed-batch was followed by a 0.5 hour starvation period and initiation of the induction phase. A continuous feed of a 50% v/v methanol solution containing 2.5 mg/L biotin and 6.25 mL/L PTM2 salts was started at a flat rate of 2.16 mL/hour. Injections of 0.25 mL of 1.9 mg/mL PMTi-4 (in methanol) were added after each 24 hours of induction. In general, individual fermentations were harvested within 36-110 hours of induction. The culture broth was clarified by centrifugation (Sorvall Evolution RC, Thermo Scientific) at 8500 rpm for 40 min and the resulting supernatant was submitted for purification."}, "[6]": {"test_system": "PMTi-4-resistant mutant strain YGLY17156", "assay": "1 L DasGip MeOH fed-batch fermentation with PMTi-4 (lysis, WCW, IgG1 titer, glycans)", "format": "cell-based, Pichia pastoris", "experimental": "as §2, §3, §4, §5"}}, "data": [{"smiles": "CC(C)COCC(Oc1cc(/C=C2\\SC(=S)N(CC(=O)O)C2=O)ccc1OCCc1ccc(F)cc1)c1ccccc1", "note": "(stereo not drawn) [PMTi-4]", "values": [{"measurement": "PMTi-resistance level", "setting": "[1]", "result": "at least 1 μg/mL"}, {"measurement": "PMTi-4 concentration at which robust growth is exhibited", "setting": "[2]", "result": "at least 4 μg/mL"}, {"measurement": "O-glycan Occupancy (mannitol/protein)", "setting": "[3]; IgG1", "result": 1.0, "unit": "mol/mol"}, {"measurement": "Lysis at 24° C. Day 2", "setting": "[3]; lysis-score 0.5 to 5, 5 worst", "result": 3}, {"measurement": "PMT inhibitor concentration at which strain failed to grow", "setting": "[4]", "result": "≤ 0.1", "unit": "µg/mL"}, {"measurement": "O-glycan Occupancy (mannitol/protein)", "setting": "[5]; IgG1", "result": 0.6, "unit": "mol/mol"}, {"measurement": "Lysis at 24° C. Day 1", "setting": "[5]; lysis-score 0.5 to 5, 5 worst", "result": 0.5}, {"measurement": "Lysis at 24° C. Day 3", "setting": "[5]; lysis-score 0.5 to 5, 5 worst", "result": 1}, {"measurement": "Lysis at 24° C. Day 4", "setting": "[5]; lysis-score 0.5 to 5, 5 worst", "result": 1}, {"measurement": "WCW Day 4", "setting": "[5]; wet cell weight", "result": 303}, {"measurement": "O-glycan Occupancy (mannitol/protein)", "setting": "[6]; IgG1", "result": 2.4, "unit": "mol/mol"}, {"measurement": "Lysis at 24° C. Day 1", "setting": "[6]; lysis-score 0.5 to 5, 5 worst", "result": 0.5}, {"measurement": "Lysis at 24° C. Day 3", "setting": "[6]; lysis-score 0.5 to 5, 5 worst", "result": 1}, {"measurement": "Lysis at 24° C. Day 4", "setting": "[6]; lysis-score 0.5 to 5, 5 worst", "result": 1.5}, {"measurement": "WCW Day 4", "setting": "[6]; wet cell weight", "result": 236}]}]}
